For the data set the following is noted: for aqueous solubility: pH 6.8.

Converted amounts (≈) assume the structure as drawn. Where only a bound is given, the exact number is not on record here.

The term aqueous solubility denotes the dissolved amount per volume that the medium holds. Low values mean a poorly soluble substance, high ones a readily soluble substance. Regarding `CC1=NN(c2ccc(F)cc2)C(=O)/C1=C(/C)Nc1ccc(S(N)(=O)=O)cc1`, the MDR1-MDCK efflux ratio came to 12; the intrinsic clearance, human liver microsomes is no more than 4.74 mL/min/kg; the intrinsic clearance, rat liver microsomes was no more than 10.7 mL/min/kg; the aqueous solubility is 28.4 µg/mL (≈ 73 µM).
With `COC1(c2nc(Cc3ccccc3)no2)CCN(Cc2ncccc2Cl)CC1`, the MDR1-MDCK efflux ratio came out at 0.76; the intrinsic clearance, human liver microsomes was 123 mL/min/kg; the intrinsic clearance, rat liver microsomes came out at 1780 mL/min/kg.
On to `Cc1ccc2c(CC(=O)N(C)CC(N)=O)coc2c1C`, for which the aqueous solubility was 34.9 µg/mL (≈ 127 µM).
Take `O=C(NO)c1cnc(NC2(c3ccccc3)CC2)nc1`: the intrinsic clearance, human liver microsomes was no more than 4.74 mL/min/kg and the intrinsic clearance, rat liver microsomes amounted to 17.4 mL/min/kg.
For the compound `Cc1cc(C(=O)N2CCOC(C)(C)C2)cc(C)c1OCc1cccnc1`, the MDR1-MDCK efflux ratio stood at 2.18; the intrinsic clearance, human liver microsomes turned out to be 270 mL/min/kg; the intrinsic clearance, rat liver microsomes was found to be 2180 mL/min/kg; the aqueous solubility was 48.9 µg/mL (≈ 138 µM).
Regarding `Cc1ccc(F)cc1CNc1cc(C(=O)N(C)C)ccn1`, the MDR1-MDCK efflux ratio worked out at 1.06; the intrinsic clearance, human liver microsomes stood at 11.1 mL/min/kg; the intrinsic clearance, rat liver microsomes is 399 mL/min/kg; the aqueous solubility is 47.4 µg/mL (≈ 165 µM).
For `O=C(Nc1ccncc1)[C@H]1CCCN(S(=O)(=O)c2ccc(Cl)cc2)C1`, the MDR1-MDCK efflux ratio was 20; the intrinsic clearance, human liver microsomes came out at 22.2 mL/min/kg; the intrinsic clearance, rat liver microsomes turned out to be 721 mL/min/kg.
`O=C(c1ccccc1F)N1CCC[C@@H]1Cn1nnn(-c2cccs2)c1=O`: the MDR1-MDCK efflux ratio amounted to 0.769; the intrinsic clearance, human liver microsomes came out at 62.4 mL/min/kg; the intrinsic clearance, rat liver microsomes amounted to 1240 mL/min/kg; the aqueous solubility amounted to 33 µg/mL (≈ 88.4 µM).
Take `CO[C@H]1CC[C@@H](C(=O)c2ccc3nc4c(cc3c2)CCCO4)CC1`: the MDR1-MDCK efflux ratio turned out to be 0.805; the intrinsic clearance, human liver microsomes was determined as 29.4 mL/min/kg; the intrinsic clearance, rat liver microsomes came to 552 mL/min/kg; the aqueous solubility was found to be 44.5 µg/mL (≈ 137 µM).
The compound `NC(=O)Cn1nnc(-c2ccccc2F)n1` yielded an aqueous solubility of 11.6 µg/mL (≈ 52.2 µM).
`Cn1c(C2CC2)nc2c1CCN(c1ncnc3ccsc13)C2` came in with a fraction unbound, human plasma of 0.173; a fraction unbound, rat plasma of 0.156; an intrinsic clearance, human liver microsomes of 31.9 mL/min/kg; an intrinsic clearance, rat liver microsomes of 1090 mL/min/kg. Also, the aqueous solubility worked out at 50.4 µg/mL (≈ 162 µM).
Regarding `Cc1ccccc1-n1c(CC2CCN(C(=O)C3CC3)CC2)n[nH]c1=O`, the MDR1-MDCK efflux ratio is 117; the intrinsic clearance, human liver microsomes is no more than 4.74 mL/min/kg; the intrinsic clearance, rat liver microsomes is 26.8 mL/min/kg; the aqueous solubility was 48 µg/mL (≈ 141 µM).
For the compound `O=C(Nc1ccccc1)Nc1ccc(-c2ccc(C(=O)[C@H]3CCC[C@@H]3C(=O)O)cc2)cc1`, the MDR1-MDCK efflux ratio was determined as 5.96; the intrinsic clearance, human liver microsomes came to 11.3 mL/min/kg; the intrinsic clearance, rat liver microsomes is 23.8 mL/min/kg.
For the compound `CC(=O)Nc1ncc(CN2CCCC[C@@H]2C)s1`, the MDR1-MDCK efflux ratio is 1.31; the fraction unbound, human plasma turned out to be 1; the fraction unbound, rat plasma is 0.838; the intrinsic clearance, human liver microsomes was no more than 4.74 mL/min/kg. Further, the intrinsic clearance, rat liver microsomes is 14.1 mL/min/kg.
Take `CCC1(CC)NC(=O)N(CC(=O)N2CCOCC3(CCCC3)C2)C1=O`: the MDR1-MDCK efflux ratio was 81.5; the intrinsic clearance, human liver microsomes turned out to be 30.6 mL/min/kg; the intrinsic clearance, rat liver microsomes came out at 217 mL/min/kg; the aqueous solubility was determined as 63.4 µg/mL (≈ 180 µM).
With `O=C(CCNc1ncccn1)N1CCc2ccccc2C1`, the MDR1-MDCK efflux ratio came out at 1.23; the intrinsic clearance, human liver microsomes turned out to be 24.8 mL/min/kg; the intrinsic clearance, rat liver microsomes came out at 146 mL/min/kg; the aqueous solubility worked out at 35.1 µg/mL (≈ 124 µM).
In the same order, the values of `O=C(Nc1nccs1)C1CCN(C(=O)CN2CCc3ccccc32)CC1` are 24.4, 33.2 mL/min/kg, 394 mL/min/kg and 51.4 µg/mL (≈ 139 µM).
Take `O=C1N[C@@H]2CCN(C(=O)c3ccc(-c4ccccc4)cc3)[C@@H]2C(=O)N1c1ccc(F)cc1`: the MDR1-MDCK efflux ratio amounted to 44.4; the intrinsic clearance, human liver microsomes was no more than 4.74 mL/min/kg; the intrinsic clearance, rat liver microsomes was found to be 29.7 mL/min/kg; the aqueous solubility came out at 31.5 µg/mL (≈ 73.3 µM).
`Nc1ccc2c(ccn2CC(=O)N2CCOCC2)c1` had an intrinsic clearance, human liver microsomes of no more than 4.74 mL/min/kg; an intrinsic clearance, rat liver microsomes of no more than 10.7 mL/min/kg; an aqueous solubility of 50.5 µg/mL (≈ 195 µM).
Consider `Cc1nc(-c2ccccc2)c(C(=O)Nc2ccc(Cl)c(Cl)c2)s1`, for which the MDR1-MDCK efflux ratio was determined as 0.73; the intrinsic clearance, human liver microsomes is 89.2 mL/min/kg; the intrinsic clearance, rat liver microsomes came out at 2390 mL/min/kg.
On to `Cc1cc(N2CCN(C(=O)OC(C)(C)C)[C@H](C)C2)ncn1`, for which the MDR1-MDCK efflux ratio worked out at 0.766; the intrinsic clearance, human liver microsomes was determined as 9.46 mL/min/kg; the intrinsic clearance, rat liver microsomes was determined as 124 mL/min/kg; the aqueous solubility is 51.7 µg/mL (≈ 177 µM).
The like results for `COc1ccc(-n2cc3c(c2-c2ccccc2Br)c(=O)n(C)c(=O)n3C)cc1` were, in that order, 0.946, 37.5 mL/min/kg, 521 mL/min/kg and 4.92 µg/mL (≈ 11.2 µM).
The like results for `O=C(NCc1nncn1-c1ccccc1)C1CCCC1` were, in that order, 20.8, no more than 4.74 mL/min/kg, 12.2 mL/min/kg and 43.3 µg/mL (≈ 160 µM).
Consider `CCc1noc(CN2CCCN(C(C)=O)c3ccccc32)n1`, for which the MDR1-MDCK efflux ratio worked out at 1.25; the intrinsic clearance, human liver microsomes was 51 mL/min/kg; the intrinsic clearance, rat liver microsomes was 855 mL/min/kg; the aqueous solubility was 55.4 µg/mL (≈ 185 µM).
As for `O=c1n(Cc2ccccn2)nc2n1-c1cc(Cl)ccc1C1=NCCN12`, the intrinsic clearance, human liver microsomes was no more than 4.74 mL/min/kg and the intrinsic clearance, rat liver microsomes is 47.9 mL/min/kg.
Consider `CO[C@@H](C(=O)Nc1cc2c(C)cc(=O)oc2cc1C)c1ccccc1`, for which the MDR1-MDCK efflux ratio came out at 1.15; the intrinsic clearance, human liver microsomes is 12.8 mL/min/kg; the intrinsic clearance, rat liver microsomes came to 256 mL/min/kg; the aqueous solubility was found to be 39.8 µg/mL (≈ 118 µM).
Consider `Cc1ccsc1-c1nc(CN(C)CCc2cn[nH]c2)c(C)o1`, for which the intrinsic clearance, human liver microsomes is 185 mL/min/kg; the intrinsic clearance, rat liver microsomes came to 1210 mL/min/kg; the aqueous solubility worked out at 55.7 µg/mL (≈ 176 µM).
Consider `CCCCNC(=O)c1cccc2ncccc12`, for which the MDR1-MDCK efflux ratio turned out to be 0.631; the intrinsic clearance, human liver microsomes is no more than 4.74 mL/min/kg; the intrinsic clearance, rat liver microsomes came to 28 mL/min/kg; the aqueous solubility was 29.3 µg/mL (≈ 128 µM).
In turn, `COc1ccc(C(=O)N2CCCC2)cc1NC(=O)c1cc(F)c(F)c(F)c1F` gave an intrinsic clearance, human liver microsomes of no more than 4.74 mL/min/kg; an intrinsic clearance, rat liver microsomes of 90.1 mL/min/kg; an aqueous solubility of 43.9 µg/mL (≈ 111 µM).
As for `COc1ccc(-c2csc(CC(N)=O)n2)cc1`, the MDR1-MDCK efflux ratio stood at 0.751 and the aqueous solubility stood at 31.3 µg/mL (≈ 126 µM).
`O[C@@H]1C[C@@H](c2nc(-c3ccccc3)no2)N(Cc2ccccc2)C1`: the MDR1-MDCK efflux ratio was found to be 0.539; the intrinsic clearance, human liver microsomes came to 54.2 mL/min/kg; the intrinsic clearance, rat liver microsomes was found to be 908 mL/min/kg; the aqueous solubility was found to be 41.6 µg/mL (≈ 129 µM).
As for `CC1(C)CC(=O)c2c(C(F)(F)F)nn(-c3ccc(C(N)=O)c(N[C@H]4CC[C@@H](O)CC4)c3)c2C1`, the MDR1-MDCK efflux ratio was found to be 109; the intrinsic clearance, human liver microsomes turned out to be 47.7 mL/min/kg; the intrinsic clearance, rat liver microsomes came to 108 mL/min/kg.
Take `Cc1nc(O)c2c(n1)CN(Cc1ccccc1)CC2`: the MDR1-MDCK efflux ratio is 9.79; the intrinsic clearance, human liver microsomes was no more than 4.74 mL/min/kg; the intrinsic clearance, rat liver microsomes was no more than 10.7 mL/min/kg; the aqueous solubility came out at 42.7 µg/mL (≈ 167 µM).
Turning to `Cc1nnc(N2CC[C@H](O)C2)c(C#N)c1C`, the MDR1-MDCK efflux ratio is 1.3; the intrinsic clearance, human liver microsomes is no more than 4.74 mL/min/kg; the intrinsic clearance, rat liver microsomes was no more than 10.7 mL/min/kg; the aqueous solubility is 31.2 µg/mL (≈ 143 µM).
In the same order, the values of `Cc1nnc(-c2ccccc2-c2ccc(O)cc2)s1` are 1.3, 14.6 mL/min/kg, 397 mL/min/kg and 50.1 µg/mL (≈ 187 µM).
Take `CC(=O)N1CCCN(Cc2c(C)nn(C)c2Cl)CC1`: the MDR1-MDCK efflux ratio was found to be 3.19; the intrinsic clearance, human liver microsomes stood at 11.6 mL/min/kg; the intrinsic clearance, rat liver microsomes came out at 43.7 mL/min/kg; the aqueous solubility was determined as 41.1 µg/mL (≈ 144 µM).
As to `Cc1c(O)cccc1OCCN1CCOCC1`, the intrinsic clearance, human liver microsomes was no more than 4.74 mL/min/kg and the intrinsic clearance, rat liver microsomes is 53.7 mL/min/kg.
Take `FC(F)(F)c1nc(Nc2ccc(-n3cnnn3)cc2)c2ccccc2n1`: the MDR1-MDCK efflux ratio is 1.13; the intrinsic clearance, human liver microsomes is no more than 4.74 mL/min/kg; the intrinsic clearance, rat liver microsomes was no more than 10.7 mL/min/kg; the aqueous solubility turned out to be 1.15 µg/mL (≈ 3.22 µM).
For `Cc1csc(Cc2nc(-c3ccc(O)cc3)no2)n1`, the MDR1-MDCK efflux ratio came to 0.531; the intrinsic clearance, human liver microsomes is 15.1 mL/min/kg; the intrinsic clearance, rat liver microsomes came to 288 mL/min/kg.
In the case of `CCOC(=O)c1c(C)[nH]c(CN(Cc2ccccc2)C(=O)c2ccccc2Cl)c1C`, the MDR1-MDCK efflux ratio stood at 2.14; the intrinsic clearance, human liver microsomes was determined as 311 mL/min/kg; the intrinsic clearance, rat liver microsomes amounted to 1490 mL/min/kg; the aqueous solubility turned out to be 5.15 µg/mL (≈ 12.1 µM).
`C[C@@H](NC(=O)c1cc(Br)c2c(c1)OCCO2)c1cn(-c2ccccc2)nn1`: the MDR1-MDCK efflux ratio was 3.48.
`COc1cc2c(cc1NC(C)=O)oc1ccccc12`: the MDR1-MDCK efflux ratio came to 0.379; the intrinsic clearance, human liver microsomes is 117 mL/min/kg; the intrinsic clearance, rat liver microsomes was 63.7 mL/min/kg; the aqueous solubility turned out to be 34.4 µg/mL (≈ 135 µM).
`O=C(CCc1ccc(-c2ccccc2)o1)N1CCC(n2c(=O)[nH]c3ccccc32)CC1` registered an intrinsic clearance, human liver microsomes of 255 mL/min/kg and an intrinsic clearance, rat liver microsomes of 1760 mL/min/kg.
In the same order, the values of `Cc1ccc2[nH]c(CNC(=O)c3cc(C(F)F)nn3C)nc2c1C` are 19.9 mL/min/kg and 186 mL/min/kg.
Regarding `O=C(NC1CCCC1)c1cc(C2CC2)nc2ccccc12`, the MDR1-MDCK efflux ratio is 0.695; the intrinsic clearance, human liver microsomes is 61.9 mL/min/kg; the intrinsic clearance, rat liver microsomes was determined as 140 mL/min/kg; the aqueous solubility is 18.6 µg/mL (≈ 66.3 µM).
